Where a SMILES comes first, the peptide text is derived from it. [ ]: non-standard residue; d: D form. The star is where a group is joined. ξ: configuration not given here. ξPro(4ξ-Me) = CC1CNC(C(=O)O)C1; Cbz = O=C(OCc1ccccc1)*

For experiment [1], the system named is 20S proteasome T-L activity. As to conditions: cited from earlier work. The source says:
(§1) The 26S proteasome is a large (2.4 MDa), multifunctional and ATP-dependent enzymatic complex with chymotrypsin-like (CT-L), trypsin-like (T-L), and caspase-like (C-L) activities. In eukaryotic organisms, it recognizes and degrades proteins with covalently attached ubiquitin (8.5 kDa protein). The 26S proteasome is composed of a 20S barrel-shaped core particle (700 kDa) responsible for proteolytic activity and one or two 19S (890 kDa) regulatory subunits with ubiquitin-binding sites. The 20S proteasome also occurs as a free complex that degrades protein ...

The test system of experiment [2] is proteasome. More on the design: method as in PMID 18801655. As to conditions: read-out: IC50, proteasome inhibition; cited from earlier work.
Protocol: In the current work, to unequivocally state which of the cyanobacterial metabolites are responsible for this activity, the six isolated Ncps were assayed.
Experiment [3] concerns the target T1, human 20S proteasome (h20S), chymotrypsin-like (CT-L) activity (Homo sapiens, UniProt P28074).
T1 construct: Human 20S proteasome (h20S) isolated from erythrocytes was used; from tissue; host or cells: human erythrocytes
Nature of the experiment: Human 20S inhibition assay, chymotrypsin-like activity (Suc-LLVY-AMC). As to conditions: Suc-LLVY-AMC 100 µM, pH 8.0, 37 °C. The class given is biochemical. Here is the method: (§2) The 20S proteasome inhibition assay was performed following the procedure of Czerwonka et al.. Human 20S proteasome (h20S) isolated from erythrocytes was used. Latent h20S was activated with 0.01% SDS (sodium dodecyl sulfate). The final concentration of the proteasome was 1 µg mL^−1 (1.4 nM). The fluorogenic substrates, Suc-LLVY-AMC, Boc-LRR-AMC, and Z-LLE-AMC, were used as probes in the chymotrypsin-like, trypsin, and caspase-like activity assays, respectively, at a final concentration of 100 µM. Stock solutions of Ncps (10 mM) were prepared in dimethyl sulfoxide (DMSO) and were tested in the concentration range of 5 to 50 μM. The content of DMSO never exceeded 3% of the final reaction volume. The assays were performed in a 96-well plate in 50 mM TrisHCl, pH 8.0, at 37 °C. The percentage of the substrate hydrolysis was measured by the amount of the released AMC (aminomethyl coumarin) using Tecan Infinite M200 Pro (λ = 380–460 nm) spectrofluorimeter (Tecan Trading AG, Männedorf, Switzerland). The fluorescence measurements were performed at 2-min intervals for 60 min. The activity of h20S in the presence of isolated Ncps was calculated in relation to the control (DMSO). The known proteasome inhibitor PR11 [28] was used to ensure the correctness of the assay. The peptide at the final concentration of 0.2 µM decreases the relative CT-L activity of the h20S to 6% of the control.

The target in experiment [4] is T2, human 20S proteasome (h20S), caspase-like (C-L) activity (Homo sapiens, UniProt P28072).
T2 construct: Human 20S proteasome (h20S) isolated from erythrocytes was used; from tissue; host or cells: human erythrocytes
Put plainly: Human 20S inhibition assay, caspase-like activity (Z-LLE-AMC). Type of experiment: biochemical. The following applies: tested 5 to 50 µM; Z-LLE-AMC 100 µM; pH 8.0, 37 °C; no replications; Figure 2C. Here is the method: as §2

Experiment [5] addresses T3, human 20S proteasome (h20S), trypsin-like (T-L) activity (Homo sapiens, UniProt Q99436).
T3 construct: Human 20S proteasome (h20S) isolated from erythrocytes was used; from tissue; host or cells: human erythrocytes
Put plainly: Human 20S inhibition assay, trypsin-like activity (Boc-LRR-AMC). The class given is biochemical. The following applies: tested 5 to 50 µM; Boc-LRR-AMC 100 µM; pH 8.0, 37 °C; no replications; Figure 2B. On the procedure: as §2

Experiment [6] relates to proteasome CT-L activity. The following applies: cited from earlier work. On the procedure:
(§3) Nostodione A from Scytonema hofmannii, which inhibits CT-L activity (IC50 50 μM), contains indole moiety fused with diketone system.

The subject of experiment [7] is Saccharomyces cerevisiae 20S proteasome CT-L activity. The following applies: cited from earlier work. On the procedure:
as §3

For experiment [8], the system named is 20S proteasome CT-L activity. As to conditions: cited from earlier work.
From the text: as §1

Experiment [9] deals with 20S proteasome C-L activity. The following applies: cited from earlier work.
From the text: as §1

Experiment [10] concerns proteasome CT-L activity. As to conditions: cited from earlier work.
From the text: as §1
The source holds these as a separate data set.

In experiment [11] the test system is 20S complex (proteasome). As to conditions: read-out: IC50, catalytic activity of proteasome; cited from earlier work. Here is the method:
as §3

Regarding `CC(=O)N[C@@H](CC(C)C)C(=O)N[C@@H](CC(C)C)C(=O)N[C@H](C=O)CCCNC(=N)N` [Leupeptin], in experiment [1], the “effect on T-L activity of the 20S proteasome” value is “inhibits T-L activity”. In the case of `CC(C)C[C@@H](C=O)NC(=O)[C@H](CC(C)C)NC(=O)[C@H](CC(C)C)NC(=O)OCc1ccccc1` [MG-132] (Cbz-Leu-Leu-Leu-aldehyde), the 50% inhibitory concentration (IC50) (as a rule, the concentration needed to halve the response being measured) in experiment [2] is 110 nM.

In [3] (h20S 1.4 nM, approximate (ca.)), `CCC(C)C(NC(=O)C(CCC(N)=O)NC(=O)CNC(=O)C(N)Cc1ccc(O)cc1)C(=O)NC(CO)C(=O)N1CC(C)CC1C(=O)NC(C=O)Cc1ccccc1` (stereo not drawn) [Ncp-A2-L, Tyr-Gly-Gln-Ile-Ser-MePro-Phe-H] (H-YGQIS[ξPro(4ξ-Me)]F-aldehyde; configuration not given here) yielded an IC50 of about 50000 nM. With `CC[C@H](C)[C@H](NC(=O)[C@@H](CCC(N)=O)NC(=O)CNC(=O)[C@@H](N)Cc1ccc(O)cc1)C(=O)N[C@@H](CO)C(=O)N1CCC[C@H]1C(=O)N[C@H](C=O)CC(C)C` [Ncp-E2-L] (H-YG[dQ]ISPL-aldehyde; N-terminus assumed), the “effect on C-L activity of the human 20S proteasome” value in experiment [4] is given as “did not modify”. Besides, the “effect on CT-L activity of the human 20S proteasome at 50 µM” value in experiment [3] (applied at 50 µM, triplicate, Figure 2A) is “inhibited”. Further, in experiment [5], the “effect on T-L activity of the human 20S proteasome” value is given as “did not modify”.

Regarding `O=C1C(=O)c2c([nH]c3ccccc23)/C1=C\c1ccc(O)cc1` [Nostodione A], in experiment [6], the half-inhibitory concentration (IC50) was 50000 nM.

Regarding `CCCCCC(=O)N[C@H](C(=O)N[C@@H](CC[S+](C)[O-])C(=O)N[C@@H](CC(C)C)C(=O)[C@@]1(C)CO1)C(C)C` (some centres unmarked) [carmaphycin A], the “inhibition of CT-L activity of the Saccharomyces cerevisiae 20S proteasome” value in experiment [7] is recorded as “low nanomolar concentrations”. As for `CCCCCC(=O)N[C@H](C(=O)N[C@@H](CCS(C)(=O)=O)C(=O)N[C@@H](CC(C)C)C(=O)[C@@]1(C)CO1)C(C)C` [carmaphycin B], the “inhibition of CT-L activity of the Saccharomyces cerevisiae 20S proteasome” value in experiment [7] is “low nanomolar concentrations”.

`CCCCCCCCC[C@@H](O)CC(=O)N[C@@H](CC(N)=O)C(=O)N[C@@H](CCC(N)=O)C(=O)N[C@H](C=O)CC(C)C` [fellutamide B]: the IC50 in experiment [8] was 9.4 nM; in experiment [9], 1200 nM; in experiment [1], 2000 nM.

As for Tyropeptin A, the “effect on CT-L activity” value in experiment [10] is “inhibits mainly CT-L activity”. For scytonemide A, the IC50 in [11] is 96 nM.

The record behind these values is paper PMC8533403, “Nostocyclopeptides as New Inhibitors of 20S Proteasome” (Biomolecules, 2021).
